# Assay results taken from patent US4910152A, “Method for binding opioid receptors” (priority 1986, dated 1990).
# “Also recorded” adds a separate entry of the source. Where two headings read alike, the source gives them in different places.
# How the values were obtained:
# [1] = target: T1, opioid receptors in rat brain membrane preparations (Rattus norvegicus, UniProt P33535)
# Method: (§2) The data was analyzed, using the program LIGAND of Munson and Rodbard.
# [2] = target: T1, opioid receptors in rat brain membrane preparations; assay: 3H-DHM displacement from rat brain membranes (Example 4 method); settings: for Hill coefficient / binding activity in synaptosomal membranes (in words): 3H-DHM displacement; for binding activity in synaptosomal membranes (in words): rat brain synaptosomal membranes
# Method: as §2
# [3] = target: T1, opioid receptors in rat brain membrane preparations; assay: biochemical
# Method: as §2
# [4] = target: T2, guinea-pig ileum myenteric plexus-longitudinal muscle (Cavia porcellus, UniProt A0ACM8Q262); assay: Guinea-pig ileum myenteric plexus-longitudinal muscle bioassay, single dose method, normorphine agonist (Example 12); type: cell-based; settings: for opioid antagonism, G.p.i.: G.p.i. bioassay; for Relative potency, bioassay G.P.I.: Ke of naloxone in m.v.d. taken to be 1; for reversal of antagonism by naloxone, G.p.i.: addition of naloxone; for duration of action in the G.p.i. (in words): compared with parent opioids; for t1/2 (half-time of recovery), guinea-pig M. plexus / Kb: geometric mean (95% confidence limits); for Kb: agonist normorphine, read-out: Ke (dissociation constant), guinea-pig M. plexus
# T2 construct: normorphine as agonist
# mouse vas deferens = target: T3, mouse vas deferens (Mus musculus, UniProt P32300); assay: Mouse vas deferens bioassay, single dose method, DALE agonist (Example 12); type: cell-based; settings: for inhibitory effect on the contractions (in words) / duration / reversibility of antagonism in the m.v.d. (in words): m.v.d.; for opioid antagonism, m.v.d.: m.v.d. bioassay; for inhibition of DALE-induced contractions of the m.v.d.: 25-1000 nM, all doses tested; for Relative potency, bioassay M.V.D.: Ke of naloxone in m.v.d. taken to be 1; for t1/2 (half-time of recovery), mouse vas deferens: geometric mean (95% confidence limits); for reversal of antagonism by naloxone, m.v.d.: naloxone up to 10,000 nM; for M.V.D./G.P.I. (relative affinity): ratio of m.v.d. to G.p.i. relative potency
# T3 construct: Each of several samples of mouse vas deferens (m.v.d.); tissue A-Lab, Solna, Sweden (mice); host or cells: vas deferens of male NMRI mice
# [5] = target: T4, kappa-type opioid binding sites (Rattus norvegicus, UniProt P34975); assay: Kappa-site binding, 1 nM [3H]-(±)-EKC with 200 nM DAGO and DADL, rat brain membranes; settings: for Relative potency, binding assay Kappa: Ki of naloxone in inhibiting 3H-DALE taken to be 1; for Relative affinity, kappa: Ki^-1 x 100 / sum of Ki^-1 values
# T4 construct: Rat brain membranes were prepared; from tissue; host or cells: rat brain membranes
# Method: (§1) Rat brain membranes were prepared and binding assays performed as previously described by Neil, A. in "Detection and characterization of four opioid binding sites in the mouse brain," Acta Pharmacol. Tox. 56: 108-116 (1985).
# [6] = target: T5, delta-type opioid binding sites (Rattus norvegicus, UniProt P33533); assay: Delta-site binding, 1 nM [3H]-DALE with 30 nM DAGO, rat brain membranes; settings: for Relative potency, binding assay Delta: Ki of naloxone in inhibiting 3H-DALE taken to be 1; for Relative affinity, delta: Ki^-1 x 100 / sum of Ki^-1 values; for delta affinity / selectivity (in words): delta-type opioid receptors
# T5 construct: Rat brain membranes were prepared; from tissue; host or cells: rat brain membranes
# Method: as §1
# [7] = target: T6, mu-type opioid binding sites (Rattus norvegicus, UniProt P33535); assay: Mu-site binding, 0.2 nM [3H]-dihydromorphine, rat brain membranes; settings: for Relative potency, binding assay Mu: Ki of naloxone in inhibiting 3H-DALE taken to be 1; for Relative affinity, mu: Ki^-1 x 100 / sum of Ki^-1 values; for Ki: [3H]-DHM, read-out: Ki, mu (inhibition of binding)
# T6 construct: Rat brain membranes were prepared; from tissue; host or cells: rat brain membranes
# Method: as §1
# [8] = test system: guinea pig ileum longitudinal muscle preparation; assay: Electrically stimulated guinea pig ileum longitudinal muscle (Example 5); type: cell-based; settings: 25 microliters; 10^-7 M
# Method: 6-FN was tested for activity on an electrically stimulated guinea pig ileum longitudinal muscle preparation. In this test, a specimen of guinea pig ileum was stretched between two wires in a nutrient solution (2.5 mil.) and stimulated supramaximally at 0.1 Hz. In the absence of opioid agonists and antagonists electrical stimulation of the muscle results in contraction.
# T5 sequence (P33533 whole entry): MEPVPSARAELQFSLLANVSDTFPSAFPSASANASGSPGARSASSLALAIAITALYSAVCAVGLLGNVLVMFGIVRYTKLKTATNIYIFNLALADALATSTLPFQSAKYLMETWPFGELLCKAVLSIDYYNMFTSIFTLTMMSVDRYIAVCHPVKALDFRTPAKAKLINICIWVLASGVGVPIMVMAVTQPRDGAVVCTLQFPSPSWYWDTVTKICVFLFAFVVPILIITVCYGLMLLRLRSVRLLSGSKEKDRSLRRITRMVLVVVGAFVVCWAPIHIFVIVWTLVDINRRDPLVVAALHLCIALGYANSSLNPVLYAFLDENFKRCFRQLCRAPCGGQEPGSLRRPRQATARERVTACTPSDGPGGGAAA
# T4 sequence (P34975 whole entry): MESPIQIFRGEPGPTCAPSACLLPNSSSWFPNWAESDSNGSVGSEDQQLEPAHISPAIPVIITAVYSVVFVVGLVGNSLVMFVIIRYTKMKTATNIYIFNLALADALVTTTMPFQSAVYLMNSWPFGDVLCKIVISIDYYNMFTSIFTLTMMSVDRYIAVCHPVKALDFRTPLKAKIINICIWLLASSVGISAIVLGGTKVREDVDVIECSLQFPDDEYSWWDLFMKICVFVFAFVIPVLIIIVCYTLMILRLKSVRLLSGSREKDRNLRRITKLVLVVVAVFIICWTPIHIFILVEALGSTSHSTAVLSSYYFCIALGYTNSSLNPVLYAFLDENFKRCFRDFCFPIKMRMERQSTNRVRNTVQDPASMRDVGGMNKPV
# T6 sequence (P33535 whole entry): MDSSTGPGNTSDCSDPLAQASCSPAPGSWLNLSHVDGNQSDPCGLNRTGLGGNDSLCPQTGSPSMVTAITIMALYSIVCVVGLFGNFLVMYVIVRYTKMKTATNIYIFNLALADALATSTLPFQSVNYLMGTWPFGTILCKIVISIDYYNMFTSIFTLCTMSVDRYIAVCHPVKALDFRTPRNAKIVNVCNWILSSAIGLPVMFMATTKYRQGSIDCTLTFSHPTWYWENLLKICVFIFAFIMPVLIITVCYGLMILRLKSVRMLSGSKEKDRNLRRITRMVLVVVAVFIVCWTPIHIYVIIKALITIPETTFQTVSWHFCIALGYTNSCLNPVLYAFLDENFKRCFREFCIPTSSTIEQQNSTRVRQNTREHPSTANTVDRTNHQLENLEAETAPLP
# T1 sequence (P33535 whole entry): as above
# T3 sequence (P32300 whole entry): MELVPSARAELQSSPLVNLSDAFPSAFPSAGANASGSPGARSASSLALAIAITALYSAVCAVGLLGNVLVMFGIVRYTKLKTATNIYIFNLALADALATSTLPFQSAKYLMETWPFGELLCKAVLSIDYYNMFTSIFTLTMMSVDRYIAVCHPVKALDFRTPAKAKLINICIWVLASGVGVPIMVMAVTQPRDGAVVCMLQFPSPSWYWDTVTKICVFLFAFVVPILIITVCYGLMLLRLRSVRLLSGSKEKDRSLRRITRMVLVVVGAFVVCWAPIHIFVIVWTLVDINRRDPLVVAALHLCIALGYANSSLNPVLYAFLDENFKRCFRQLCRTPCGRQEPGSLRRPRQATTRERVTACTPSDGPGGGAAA
# T2 sequence (A0ACM8Q262 1-400): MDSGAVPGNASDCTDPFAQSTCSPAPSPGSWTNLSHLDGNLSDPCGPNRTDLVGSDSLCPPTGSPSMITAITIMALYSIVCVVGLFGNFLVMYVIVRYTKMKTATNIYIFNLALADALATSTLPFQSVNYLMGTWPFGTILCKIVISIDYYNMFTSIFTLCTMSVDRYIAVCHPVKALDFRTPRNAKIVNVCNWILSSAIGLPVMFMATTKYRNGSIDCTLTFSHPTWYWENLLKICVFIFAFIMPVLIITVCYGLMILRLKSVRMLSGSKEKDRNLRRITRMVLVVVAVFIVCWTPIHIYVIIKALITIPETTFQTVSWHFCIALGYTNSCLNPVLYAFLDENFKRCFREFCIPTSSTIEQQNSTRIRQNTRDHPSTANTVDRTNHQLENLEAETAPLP
smiles,measurement,setting,value
"C=CCN1CC[C@]23c4c5ccc(O)c4O[C@H]2C(NC(=S)Nc2ccc4c(c2)C(=O)OC42c4ccc(O)cc4Oc4cc(O)ccc42)CC[C@@]3(O)[C@H]1C5 (single isomer, unassigned) [FAN, N-(1-N-allyl-14-hydroxynordihydro-6δ-morphinanyl)-N'-fluorosceinyl thiourea]",Kd,[1],18.9 nM
"O=C1OC2(c3ccc(O)cc3Oc3cc(O)ccc32)c2ccc(NC(=S)NN=C(c3ccccc3)c3ccccc3)cc21 [6-FB, 1-(N)-fluoresceinyl benzophenone thiosemicarbazone, reference compound]",displacement of 3H-DHM (result in words),[2]; 10^-6 M,inactive
"O=C1OC2(c3ccc(O)cc3Oc3cc(O)ccc32)c2ccc(NC(=S)NN=C3CC[C@@]4(O)[C@H]5Cc6ccc(O)c7c6[C@@]4(CCN5CC4CC4)[C@H]3O7)cc21 [6-FNX, 1-(N)-fluoresceinyl naltrexone thiosemicarbazone]",Kd,[3],2.6 nM
same,Hill coefficient,[2],0.675
same,binding activity in synaptosomal membranes (in words),[2],sufficient binding activity
"CN1CC[C@]23c4c5ccc(O)c4O[C@H]2C(=NNC(=S)Nc2ccc4c(c2)C(=O)OC42c4ccc(O)cc4Oc4cc(O)ccc42)CC[C@@]3(O)[C@H]1C5 [6-FO, 1-(N)-fluoresceinyl oxymorphone thiosemicarbazone]",Kd,[1],12.8 nM
same,Hill coefficient,[2],0.989
same,binding activity in synaptosomal membranes (in words),[2],sufficient binding activity
"C=CCN1CC[C@]23c4c5ccc(O)c4O[C@H]2C(=NNC(=S)Nc2ccc(-c4c6ccc(=[N+](C)C)cc-6oc6cc(N(C)C)ccc46)c(C(=O)[O-])c2)CC[C@@]3(O)[C@H]1C5 [6-RN, 1-(N)-tetramethylrhodaminyl-B-naloxone Thiosemicarbazone]",Kd,[1],5.3 nM
same,Hill coefficient,[2],1.09
same,binding activity in synaptosomal membranes (in words),[2],sufficient binding activity
same,IC50,"[2]; read-out: IC50 (concentration necessary for 50% displacement of 3H-DHM), rat brain synaptosomal plasma membranes, determined graphically",12 nM
"C[C@]12CC[C@@H]3c4ccc(O)cc4CC[C@H]3[C@@H]1CC[C@@H]2O [17-beta-estradiol, reference compound]","opioid antagonism, G.p.i.",[4],"none of the steroids, EH, ADDH or 17-beta-estradiol, showed opioid antagonism"
same,inhibitory effect on the contractions (in words),mouse vas deferens,no inhibitory effect on the contractions
same,"opioid antagonism, m.v.d.",mouse vas deferens,"none of the steroids, EH, ADDH or 17-beta-estradiol, showed opioid antagonism"
"C[C@]12CCC(=NN)C=C1CC[C@@H]1[C@@H]2CC[C@]2(C)C(=NN)CC[C@@H]12 [ADDH, Δ^4 androstenedione-(3,17)-dihydrazone, reference compound]","opioid antagonism, G.p.i.",[4],"none of the steroids, EH, ADDH or 17-beta-estradiol, showed opioid antagonism"
same,inhibitory effect on the contractions (in words),mouse vas deferens,inhibitory effects of magnitudes similar to NAL-E and NAL-AD-NAL
same,"opioid antagonism, m.v.d.",mouse vas deferens,"none of the steroids, EH, ADDH or 17-beta-estradiol, showed opioid antagonism"
"C[C@]12CC[C@@H]3c4ccc(O)cc4CC[C@H]3[C@@H]1CCC2=NN [EH, estrone hydrazone, reference compound]","opioid antagonism, G.p.i.",[4],"none of the steroids, EH, ADDH or 17-beta-estradiol, showed opioid antagonism"
same,inhibitory effect on the contractions (in words),mouse vas deferens,inhibitory effects of magnitudes similar to NAL-E and NAL-AD-NAL
same,"opioid antagonism, m.v.d.",mouse vas deferens,"none of the steroids, EH, ADDH or 17-beta-estradiol, showed opioid antagonism"
C=CCN1CC[C@]23c4c5ccc(O)c4O[C@H]2C(=NN=C2C=C4CC[C@@H]6[C@H](CC[C@]7(C)C(=NN=C8CC[C@@]9(O)[C@H]%10Cc%11ccc(O)c%12c%11[C@@]9(CCN%10CC=C)[C@H]8O%12)CC[C@@H]67)[C@@]4(C)CC2)CC[C@@]3(O)[C@H]1C5 [NAL-AD-NAL],"Relative potency, bioassay G.P.I.",[4],8.9
same,"reversal of antagonism by naloxone, G.p.i.",[4],Nor were the NAL-E or NAL-AD-NAL antagonisms in the G.p.i. reversed by naloxone
same,duration of action in the G.p.i. (in words),[4],somewhat longer acting than their parent opioids
same,"t1/2 (half-time of recovery), guinea-pig M. plexus",[4],34 min
same,Kb,[4],5.7 nM
same,"Relative potency, binding assay Kappa",[5],0.19
same,"Relative affinity, kappa",[5],7
same,"Relative potency, binding assay Delta",[6],3.4
same,"Relative affinity, delta",[6],5
same,delta affinity / selectivity (in words),[6],not to show a high delta affinity
same,"Relative potency, binding assay Mu",[7],18.0
same,"Relative affinity, mu",[7],78
same,Ki,[7],1.6 nM
same,mu receptor affinity (in words),[7]; compared with naloxone,mu receptor affinity on the order of naloxone
same,Kb,mouse vas deferens,37 nM
same,inhibition of DALE-induced contractions of the m.v.d.,mouse vas deferens,20-50%
same,"Relative potency, bioassay M.V.D.",mouse vas deferens,1.4
same,"t1/2 (half-time of recovery), mouse vas deferens",mouse vas deferens,19 (14-24) min
same,"reversal of antagonism by naloxone, m.v.d.",mouse vas deferens,not reversed by addition of naloxone
same,M.V.D./G.P.I. (relative affinity),mouse vas deferens,0.16
C=CCN1CC[C@]23c4c5ccc(O)c4O[C@H]2C(=NN=C2CC[C@H]4[C@@H]6CCc7cc(O)ccc7[C@H]6CC[C@]24C)CC[C@@]3(O)[C@H]1C5 [NAL-E],"Relative potency, bioassay G.P.I.",[4],0.74
same,"reversal of antagonism by naloxone, G.p.i.",[4],Nor were the NAL-E or NAL-AD-NAL antagonisms in the G.p.i. reversed by naloxone
same,selectivity in antagonizing normorphine (in words),"[4]; compared with naloxone, mu-rich tissue",far less selective
same,duration of action in the G.p.i. (in words),[4],somewhat longer acting than their parent opioids
same,"t1/2 (half-time of recovery), guinea-pig M. plexus",[4],27 min
same,Kb,[4],69 nM
same,"fold less potent than naloxone, G.p.i.",[4]; less potent than naloxone,22 fold
same,"Relative potency, binding assay Kappa",[5],4.4
same,"Relative affinity, kappa",[5],14
same,"Relative potency, binding assay Delta",[6],7.4
same,"Relative affinity, delta",[6],70
same,delta affinity / selectivity (in words),[6],delta selective; also recorded: long lasting and selectively and preferentially bind delta-type opioid receptors
same,delta affinity / selectivity (in words),[6]; listed as Nal-E,far more delta selective than naloxone
same,"Relative potency, binding assay Mu",[7],1.7
same,"Relative affinity, mu",[7],16
same,Ki,[7],17 nM
same,Kb,mouse vas deferens,5.8 nM
same,inhibition of DALE-induced contractions of the m.v.d.,mouse vas deferens,20-50%
same,"Relative potency, bioassay M.V.D.",mouse vas deferens,8.8
same,"antagonist potency versus naloxone, m.v.d.",mouse vas deferens; antagonism of DALE effects,nine-fold more potent than naloxone
same,selectivity in antagonizing D-Ala2-Leu5-enkephalin effects (in words),"mouse vas deferens; compared with naloxone, delta-rich tissue",far more selective than naloxone
same,"t1/2 (half-time of recovery), mouse vas deferens",mouse vas deferens,> 1000 min
same,duration / reversibility of antagonism in the m.v.d. (in words),mouse vas deferens,very longlasting; also recorded: very long lasting effects
same,duration / reversibility of antagonism in the m.v.d. (in words),mouse vas deferens; listed as NALE,almost irreversible in some observations
same,"reversal of antagonism by naloxone, m.v.d.",mouse vas deferens,not reversed by addition of naloxone
same,M.V.D./G.P.I. (relative affinity),mouse vas deferens,12.0
"C=CCN1CC[C@]23c4c5ccc(O)c4O[C@H]2C(=O)CC[C@@]3(O)[C@H]1C5 [naloxone, reference compound]","t1/2 (half-time of recovery), guinea-pig M. plexus",[4],15 min
"Oc1ccc2c3c1O[C@H]1[C@@H](O)C=C[C@H]4[C@@H](C2)NCC[C@@]341 [normorphine, reference compound]",inhibition of contraction of the muscle (agonist effect),[8],substantially inhibited contraction of the muscle
